Test results as given in paper PMC4503722, “Novel Phenotypic Outcomes Identified for a Public Collection of Approved Drugs from a Publicly Accessible Panel of Assays” (PLoS ONE, 2015).
Where two headings read alike, the source gives them in different places.

What was measured:
[1] = tested on: nuclear β-catenin in C2C12 cells; assay: cells; format: cell-based; conditions: Mus musculus
Colo320 = assay: cells; format: cell-based
[2] = tested on: HCT116 cells treated with a GSK3β inhibitor; assay: cells; format: cell-based; conditions: Homo sapiens
hp70S6K1 (RPS6KB1) = molecular target: T1, hp70S6K1 (RPS6KB1) (Homo sapiens, UniProt P23443); assay: Cerep LANCE kinase assay hp70S6K1 (S1 assay 31); format: biochemical; conditions: read-out: p70S6K1
T1 construct: purchased Cerep (LANCE kinase assay platform, contract assay)

HeLa cells = assay: cells; format: cell-based; conditions: Homo sapiens, HeLa, read-out: CellCycle G2/M
HT-29 = assay: cells; format: cell-based
SNU-C1 = assay: cells; format: cell-based; conditions: Homo sapiens
NCI-H716 cells = assay: cells; format: cell-based, Human; conditions: Homo sapiens
RKO = assay: cells; format: cell-based
SW480 = assay: cells; format: cell-based; conditions: Homo sapiens
hFLT3 = molecular target: T2, hFLT3 (Homo sapiens, UniProt P36888); assay: Cerep LANCE kinase assay hFLT3 (S1 assay 35); format: biochemical; conditions: read-out: FLT3
T2 construct: purchased Cerep (LANCE kinase assay platform, contract assay)

DLD-1 = assay: cells; format: cell-based; conditions: Homo sapiens
hKDR = molecular target: T3, hKDR (Homo sapiens, UniProt P35968); assay: Cerep LANCE kinase assay hKDR (S1 assay 32); format: biochemical; conditions: read-out: KDR
T3 construct: purchased Cerep (LANCE kinase assay platform, contract assay)

[3] = tested on: endothelial tube formation in co-cultures of ECFCs and ADSCs treated with VEGF; assay: cells; format: cell-based, human; conditions: Homo sapiens, read-out: Anti-Angiogenesis
HCT116 = assay: cells; format: cell-based; conditions: Homo sapiens
hGSK3b = molecular target: T4, hGSK3b (Homo sapiens, UniProt P49841); assay: Cerep LANCE kinase assay hGSK3b (S1 assay 34); format: biochemical; conditions: read-out: GSK3b
T4 construct: purchased Cerep (LANCE kinase assay platform, contract assay)

hJAK2 = molecular target: T5, hJAK2 (Homo sapiens, UniProt O60674); assay: Cerep LANCE kinase assay hJAK2 (S1 assay 33); format: biochemical; conditions: read-out: JAK2
T5 construct: purchased Cerep (LANCE kinase assay platform, contract assay)

INS-1E cells = assay: cells; format: cell-based, rat; conditions: Rattus norvegicus, INS-1E, read-out: Insulin Secretion
[4] = Homo sapiens, COLO 320, read-out: Basal_Viability ATP Colo 320
[5] = HCT-116, read-out: GSK3b inh pretreated_Viability ATP HCT116
[6] = Homo sapiens, HT-29, read-out: Basal_Viability ATP HT-29
[7] = SNU-C1, read-out: Basal_Viability ATP SNU-C1
[8] = NCI-H716, read-out: GLP 1 Secretion
[9] = Homo sapiens, RKO, read-out: Basal_Viability ATP RKO
[10] = SW480, read-out: Basal_Viability ATP SW480
[11] = DLD-1, read-out: Basal_Viability ATP DLD-1
[12] = HCT-116, read-out: Basal_Viability ATP HCT116
[13] = C2C12, IC50 / EC50, C2C12 beta-catenin translocation, read-out: Wnt Pathway
[14] = HCT-116, GSK3b inhibitor pretreated, read-out: GSK3b inh pretreated_Viability ATP HCT116
[15] = Homo sapiens, HT-29; read-out: Basal_Viability ATP HT-29
[16] = IC50 / EC50, NCI-H716, read-out: GLP 1 Secretion
[17] = Homo sapiens, RKO; read-out: Basal_Viability ATP RKO
[18] = SW480, basal, read-out: Basal_Viability ATP SW480
[19] = IC50 / EC50, endothelial tube area, ADSC/ECFC co-culture

T1 sequence (P23443 whole entry): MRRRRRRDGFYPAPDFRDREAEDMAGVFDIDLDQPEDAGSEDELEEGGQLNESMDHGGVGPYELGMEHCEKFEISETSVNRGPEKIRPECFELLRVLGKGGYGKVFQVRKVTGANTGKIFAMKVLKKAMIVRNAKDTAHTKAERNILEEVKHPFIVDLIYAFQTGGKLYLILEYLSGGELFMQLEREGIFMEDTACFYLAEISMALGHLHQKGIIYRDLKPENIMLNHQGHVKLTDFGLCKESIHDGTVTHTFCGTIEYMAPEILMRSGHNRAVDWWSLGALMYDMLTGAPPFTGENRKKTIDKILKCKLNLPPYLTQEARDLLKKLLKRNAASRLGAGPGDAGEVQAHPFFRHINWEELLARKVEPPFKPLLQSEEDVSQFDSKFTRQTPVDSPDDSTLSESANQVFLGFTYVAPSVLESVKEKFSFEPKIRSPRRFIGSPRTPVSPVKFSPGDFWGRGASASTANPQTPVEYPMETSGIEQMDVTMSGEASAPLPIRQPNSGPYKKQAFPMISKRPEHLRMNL
T5 sequence (O60674 whole entry): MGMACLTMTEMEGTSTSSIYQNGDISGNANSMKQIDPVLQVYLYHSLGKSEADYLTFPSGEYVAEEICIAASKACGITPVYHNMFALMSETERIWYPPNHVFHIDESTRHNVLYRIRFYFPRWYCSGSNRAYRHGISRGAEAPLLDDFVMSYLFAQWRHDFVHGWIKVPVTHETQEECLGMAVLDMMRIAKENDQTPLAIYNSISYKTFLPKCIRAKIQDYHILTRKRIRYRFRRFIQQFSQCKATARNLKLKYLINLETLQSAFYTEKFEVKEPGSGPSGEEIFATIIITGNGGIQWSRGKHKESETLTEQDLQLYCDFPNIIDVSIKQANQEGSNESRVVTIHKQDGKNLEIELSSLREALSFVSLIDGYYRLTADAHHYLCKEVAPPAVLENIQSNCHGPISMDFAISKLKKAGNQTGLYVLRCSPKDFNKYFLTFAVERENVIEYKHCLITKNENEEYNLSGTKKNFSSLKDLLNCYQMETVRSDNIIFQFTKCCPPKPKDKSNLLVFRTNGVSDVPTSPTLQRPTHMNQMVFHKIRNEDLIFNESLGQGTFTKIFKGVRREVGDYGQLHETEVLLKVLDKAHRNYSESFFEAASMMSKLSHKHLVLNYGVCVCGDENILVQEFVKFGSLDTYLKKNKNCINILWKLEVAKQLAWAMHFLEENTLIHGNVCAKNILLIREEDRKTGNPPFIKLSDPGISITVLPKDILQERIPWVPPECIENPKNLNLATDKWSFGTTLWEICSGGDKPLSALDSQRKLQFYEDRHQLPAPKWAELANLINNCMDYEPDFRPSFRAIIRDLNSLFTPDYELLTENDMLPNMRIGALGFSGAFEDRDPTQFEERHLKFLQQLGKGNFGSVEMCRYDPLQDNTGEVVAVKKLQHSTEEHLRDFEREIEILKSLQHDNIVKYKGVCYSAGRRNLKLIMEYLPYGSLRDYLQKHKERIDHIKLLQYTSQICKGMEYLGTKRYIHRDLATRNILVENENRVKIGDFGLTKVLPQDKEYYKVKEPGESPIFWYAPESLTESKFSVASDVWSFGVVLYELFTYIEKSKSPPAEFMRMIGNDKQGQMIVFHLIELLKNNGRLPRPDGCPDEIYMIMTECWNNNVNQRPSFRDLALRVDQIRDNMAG
T4 sequence (P49841 whole entry): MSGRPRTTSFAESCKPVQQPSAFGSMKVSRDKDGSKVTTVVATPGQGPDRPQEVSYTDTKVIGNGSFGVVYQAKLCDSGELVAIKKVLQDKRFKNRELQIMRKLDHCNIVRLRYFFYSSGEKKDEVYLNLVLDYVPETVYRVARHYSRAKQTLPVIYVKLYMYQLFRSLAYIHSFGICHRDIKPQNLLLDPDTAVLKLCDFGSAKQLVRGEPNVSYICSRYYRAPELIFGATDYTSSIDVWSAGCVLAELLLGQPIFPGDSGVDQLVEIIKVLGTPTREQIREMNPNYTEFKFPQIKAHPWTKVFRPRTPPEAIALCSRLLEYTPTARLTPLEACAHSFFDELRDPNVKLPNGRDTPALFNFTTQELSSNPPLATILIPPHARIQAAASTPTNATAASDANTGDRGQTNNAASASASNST
T3 sequence (P35968 20-1356): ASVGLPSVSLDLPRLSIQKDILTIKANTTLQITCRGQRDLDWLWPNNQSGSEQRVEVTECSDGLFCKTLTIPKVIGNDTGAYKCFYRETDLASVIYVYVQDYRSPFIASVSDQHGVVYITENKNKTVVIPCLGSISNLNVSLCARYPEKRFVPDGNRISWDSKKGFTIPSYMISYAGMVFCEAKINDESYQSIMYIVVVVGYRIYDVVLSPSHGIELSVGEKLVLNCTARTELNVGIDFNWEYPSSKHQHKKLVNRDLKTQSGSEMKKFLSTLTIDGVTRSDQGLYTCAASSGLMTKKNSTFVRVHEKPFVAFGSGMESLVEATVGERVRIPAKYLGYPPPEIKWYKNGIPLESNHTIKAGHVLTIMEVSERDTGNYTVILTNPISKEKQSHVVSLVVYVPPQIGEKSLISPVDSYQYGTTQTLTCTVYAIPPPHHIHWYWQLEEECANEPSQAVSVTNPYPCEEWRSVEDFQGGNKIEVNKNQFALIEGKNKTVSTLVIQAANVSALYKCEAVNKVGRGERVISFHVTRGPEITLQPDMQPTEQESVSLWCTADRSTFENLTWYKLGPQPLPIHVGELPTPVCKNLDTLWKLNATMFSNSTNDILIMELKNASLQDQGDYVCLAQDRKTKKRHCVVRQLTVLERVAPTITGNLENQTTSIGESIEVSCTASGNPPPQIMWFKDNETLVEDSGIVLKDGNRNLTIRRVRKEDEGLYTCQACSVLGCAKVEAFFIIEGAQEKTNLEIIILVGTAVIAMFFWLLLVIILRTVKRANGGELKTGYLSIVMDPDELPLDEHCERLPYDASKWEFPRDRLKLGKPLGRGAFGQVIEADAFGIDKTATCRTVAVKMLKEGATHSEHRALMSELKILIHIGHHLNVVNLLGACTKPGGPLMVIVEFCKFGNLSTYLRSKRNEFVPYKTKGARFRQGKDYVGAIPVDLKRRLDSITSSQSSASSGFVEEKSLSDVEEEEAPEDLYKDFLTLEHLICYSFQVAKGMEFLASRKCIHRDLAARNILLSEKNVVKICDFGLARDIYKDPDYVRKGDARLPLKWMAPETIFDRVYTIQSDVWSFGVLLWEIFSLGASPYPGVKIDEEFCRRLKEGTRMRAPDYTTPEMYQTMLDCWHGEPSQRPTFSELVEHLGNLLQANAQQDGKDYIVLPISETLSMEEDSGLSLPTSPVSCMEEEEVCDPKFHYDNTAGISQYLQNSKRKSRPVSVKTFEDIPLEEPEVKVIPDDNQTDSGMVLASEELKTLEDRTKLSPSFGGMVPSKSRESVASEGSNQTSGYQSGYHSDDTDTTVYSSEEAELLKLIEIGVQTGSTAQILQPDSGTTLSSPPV
T2 sequence (P36888 27-993): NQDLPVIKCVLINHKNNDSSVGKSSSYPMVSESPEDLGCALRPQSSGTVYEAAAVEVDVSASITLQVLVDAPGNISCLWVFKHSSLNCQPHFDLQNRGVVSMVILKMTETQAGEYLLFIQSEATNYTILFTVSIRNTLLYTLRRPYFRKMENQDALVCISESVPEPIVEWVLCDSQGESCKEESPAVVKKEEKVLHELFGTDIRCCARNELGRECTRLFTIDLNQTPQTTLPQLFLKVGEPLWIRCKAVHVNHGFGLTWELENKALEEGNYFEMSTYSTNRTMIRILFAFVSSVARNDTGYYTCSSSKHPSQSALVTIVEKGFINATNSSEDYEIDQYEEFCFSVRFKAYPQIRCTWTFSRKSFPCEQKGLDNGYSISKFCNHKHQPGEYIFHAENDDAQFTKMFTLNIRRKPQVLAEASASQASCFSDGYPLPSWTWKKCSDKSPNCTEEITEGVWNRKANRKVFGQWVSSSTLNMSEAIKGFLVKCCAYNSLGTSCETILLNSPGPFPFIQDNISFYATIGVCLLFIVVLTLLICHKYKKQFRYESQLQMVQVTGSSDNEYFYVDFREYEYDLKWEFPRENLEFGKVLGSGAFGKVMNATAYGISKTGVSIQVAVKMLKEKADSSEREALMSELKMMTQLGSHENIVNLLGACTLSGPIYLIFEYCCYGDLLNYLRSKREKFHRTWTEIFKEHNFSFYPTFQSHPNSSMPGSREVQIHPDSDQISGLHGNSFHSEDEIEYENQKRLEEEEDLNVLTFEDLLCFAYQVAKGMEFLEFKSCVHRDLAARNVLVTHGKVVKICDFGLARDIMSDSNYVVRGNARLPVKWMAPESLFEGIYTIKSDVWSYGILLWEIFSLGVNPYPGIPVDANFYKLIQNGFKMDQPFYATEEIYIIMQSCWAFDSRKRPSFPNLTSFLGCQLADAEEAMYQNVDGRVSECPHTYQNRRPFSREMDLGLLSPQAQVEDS

| SMILES | EC50 ([1]; C2C12, read-out: Wnt Pathway) [µM] | IC50 (Colo320; [4]) [µM] | IC50 [2, 5] [µM] | IC50 (hp70S6K1 (RPS6KB1); kinase assay) [µM] | EC50 (HeLa cells) [µM] | IC50 (HT-29; [6]) [µM] | IC50 (SNU-C1; [7]) [µM] | EC50 (NCI-H716 cells; [8]) [µM] | IC50 (RKO; [9]) [µM] | IC50 (SW480; [10]) [µM] | IC50 (hFLT3; kinase assay) [µM] | IC50 (DLD-1; [11]) [µM] | IC50 (hKDR; kinase assay) [µM] | IC50 [3] [µM] | IC50 (HCT116; [12]) [µM] | IC50 (hGSK3b; kinase assay) [µM] | IC50 (hJAK2; kinase assay) [µM] | EC50 (INS-1E cells) [µM] | EC50 [1, 13] [µM] | IC50 [2, 14] [µM] | also measured |
| --- | --- | --- | --- | --- | --- | --- | --- | --- | --- | --- | --- | --- | --- | --- | --- | --- | --- | --- | --- | --- | --- |
| Cc1cc(O)c2c3c4c(cc(O)c13)C(C)(C)C(=O)c1c(O)cc(O)c(c1-4)C2=O [Heliomycin] | 1.07 | 0.082 | 0.0573 | > 20 | > 10 | 3.01 | 0.332 | > 10 | 0.0754 | 0.058 | 1.97 | 0.0709 | > 20 | 0.101 | 0.0775 | 6.9 | > 20 | > 10 |  |  |  |
| O=c1c(-c2ccccc2)c1-c1ccccc1 [Diphenylcyclopropenone] | 3.62 | 3.1 | 7.71 | > 20 | > 10 | > 20 | > 20 | > 10 | > 20 | > 20 | > 20 | 4.21 | > 20 | 3.84 | > 20 | > 20 | > 20 | > 10 |  |  |  |
| COc1cccc2c1C(=O)c1c(O)c3c(c(O)c1C2=O)C[C@@](O)(C(C)=O)C[C@@H]3O[C@H]1C[C@H](N)[C@H](O)[C@H](C)O1 [Daunorubicin] |  | 9.25 |  |  |  |  |  |  |  |  |  |  |  |  |  |  |  |  | 0.0061 | 0.0554 | IC50 (hp70S6K1 (RPS6KB1)): > 20 µM; EC50 (HeLa cells; IC50 / EC50): 0.0465 µM; IC50 (HT-29; [15]): 0.648 µM; IC50 (SNU-C1; SNU-C1, basal, read-out: Basal_Viability ATP SNU-C1): 0.338 µM; EC50 (NCI-H716 cells; [16]): > 10 µM; IC50 (RKO; [17]): 0.118 µM; IC50 (SW480; [18]): 1.47 µM; IC50 (hFLT3): > 20 µM; IC50 (DLD-1; DLD-1, basal, read-out: Basal_Viability ATP DLD-1): 0.188 µM; IC50 (hKDR): > 20 µM; IC50 [3, 19]: > 10 µM; IC50 (HCT116; HCT-116, basal, read-out: Basal_Viability ATP HCT116): 0.0509 µM; IC50 (hGSK3b): > 20 µM; IC50 (hJAK2): > 20 µM; EC50 (INS-1E cells; IC50 / EC50): > 10 µM |
| COc1ccc2cc1Oc1ccc(cc1)C[C@H]1c3c(cc4c(c3Oc3cc5c(cc3OC)CCN(C)[C@@H]5C2)OCO4)CCN1C [Cepharanthine] |  |  |  |  |  |  | 7.48 |  |  |  |  | 12.4 |  |  | 9.54 |  |  |  | 2.05 | 3.57 | IC50 (Colo320; Homo sapiens, COLO 320; read-out: Basal_Viability ATP Colo 320): 1.43 µM; IC50 (hp70S6K1 (RPS6KB1)): > 20 µM; EC50 (HeLa cells; IC50 / EC50): > 10 µM; IC50 (HT-29; [15]): 1.36 µM; EC50 (NCI-H716 cells; [16]): > 10 µM; IC50 (RKO; [17]): 3.79 µM; IC50 (SW480; [18]): 0.308 µM; IC50 (hFLT3): > 20 µM; IC50 (hKDR): > 20 µM; IC50 [3, 19]: 3.02 µM; IC50 (hGSK3b): > 20 µM; IC50 (hJAK2): > 20 µM; EC50 (INS-1E cells; IC50 / EC50): > 10 µM |
